According to patent publication US11753409B2, “Crystalline salts of a B-RAF kinase inhibitor” (Xynomic Pharmaceuticals, Inc., priority 2017, dated 2023):
Entries after “also recorded” stand apart in the source; their conditions may differ. Like-named read-outs stand apart in the source and are kept apart here.

Tests used:
[1] = Intrinsic dissolution rate, rotating disc method; assay type: physicochemical
Method: The intrinsic dissolution rate of 3-(5-((1-ethylpiperidin-4-yl)(methyl)amino)-3-(pyrimidin-5-yl)-1H-pyrrolo[3,2-b]pyridin-1-yl)-2,4-difluorophenyl)propane-1-sulfonamide salts was determined in aqueous media covering a range of pH 1.1-7.4 using the rotating disc method which maintains a constant surface area.
The drug substance (5 mg) was compressed at 356.1 Newtons for 60 s to form a disk. These disks were mounted to sample holders which fit into a miniaturized dissolution testing apparatus. The dissolution media were stirred at 200 rpm at a temperature of 37° C. Samples were automatically withdrawn every second minute from the dissolution vessel and assayed by UV spectrophotometry.
The intrinsic dissolution rate of N-(3-(5-((1-ethylpiperidin-4-yl)(methyl)amino)-3-(pyrimidin-5-yl)-TH-pyrrolo[3,2-b]pyridin-1-yl)-2,4-difluorophenyl)propane-1-sulfonamide monohydrochloride salt in various media was measured in media at various pH values.
The intrinsic dissolution rate of N-(3-(5-((1-ethylpiperidin-4-yl)(methyl)amino)-3-(pyrimidin-5-yl)-1H-pyrrolo[3,2-b]pyridin-1-yl)-2,4-difluorophenyl)propane-1-sulfonamide monosuccinate salt in various media was measured in media at various pH values.

[2] = Milling and compression stress followed by XRPD; assay type: physicochemical
Method: FIG. 20 is a plot of the XRPD of N-(3-(5-((1-ethylpiperidin-4-yl)(methyl)amino)-3-(pyrimidin-5-yl)-1H-pyrrolo[3,2-b]pyridin-1-yl)-2,4-difluorophenyl)propane-1-sulfonamide monohydrochloride salt following milling in a swing mill for 10 min. at 30 rps.
FIG. 21 is a plot of the XRPD of N-(3-(5-((1-ethylpiperidin-4-yl)(methyl)amino)-3-(pyrimidin-5-yl)-1H-pyrrolo[3,2-b]pyridin-1-yl)-2,4-difluorophenyl)propane-1-sulfonamide monohydrochloride salt following compression at 2000 N for 1 s to a tablet (diameter-5 mm).
FIG. 31 is a plot of the XRPD of N-(3-(5-((1-ethylpiperidin-4-yl)(methyl)amino)-3-(pyrimidin-5-yl)-1H-pyrrolo[3,2-b]pyridin-1-yl)-2,4-difluorophenyl)propane-1-sulfonamide monosuccinate salt following milling in a swing mill for 10 min. at 30 rps.
FIG. 32 is a plot of the XRPD of N-(3-(5-((1-ethylpiperidin-4-yl)(methyl)amino)-3-(pyrimidin-5-yl)-1H-pyrrolo[3,2-b]pyridin-1-yl)-2,4-difluorophenyl)propane-1-sulfonamide monosuccinate salt following compression at 2000 N for 1 s to a tablet (diameter-5 mm).

[3] = Equilibrium solubility in various aqueous media (solubility after 2 h); assay type: physicochemical; conditions: for solubility at 2 h: thermodynamic from solid
Method: Saturated solutions are prepared in well plates by adding an appropriate volume of selected aqueous media (typically in the range of 0.25-1.5 mL) into each well which contains a known quantity of solid drug substance (typically in the range 0.5-5.0 mg). The wells are shaken or stirred for a predefined time period (typically in a range of 2-24 h) and then filtered using appropriate filter membranes (typically PTFE-filters with 0.45 μm pore size). Filter absorption is avoided by discarding the first few drops of filtrate. The amount of dissolved drug substance is determined by UV spectroscopy. In addition, the pH of the aqueous saturated solution is measured using a glass-electrode pH meter.
The equilibrium solubility of N-(3-(5-((1-Ethylpiperidin-4-yl)(methyl)amino)-3-(pyrimidin-5-yl)-1H-pyrrolo[3,2-b]pyridin-1-yl)-2,4-difluorophenyl)propane-1-sulfonamide monohydrochloride salt in various media was determined.
The solubility of N-(3-(5-((1-Ethylpiperidin-4-yl)(methyl)amino)-3-(pyrimidin-5-yl)-1H-pyrrolo[3,2-b]pyridin-1-yl)-2,4-difluorophenyl)propane-1-sulfonamide monosuccinate salt in various media was determined.

[4] = Intrinsic dissolution rate, rotating disc method; assay type: physicochemical; conditions: pH of medium 1.0 (0.1M HCl), 37° C.
[5] = Sorption-desorption (DVS) of the salts with XRPD before and after; assay type: physicochemical
Method: Dynamic Vapor Sorption (DVS) was performed in a IGAsorp Water Sorption Analyzer from Hiden Isochema. Adsorption and desorption isotherms were performed at 25° C. with 10% RH step intervals ranging from 0% relative humidity up to 90% relative humidity.

[6] = Pharmacokinetics following oral administration to rats; assay type: in vivo, HsdHan:WIST Norway rats; conditions: rat; for AUD: AUD range 0-24 h
Method: The pharmacokinetics of N-(3-(5-((1-ethylpiperidin-4-yl)(methyl)amino)-3-(pyrimidin-5-yl)-1H-pyrrolo[3,2-b]pyridin-1-yl)-2,4-difluorophenyl)propane-1-sulfonamide hydrochloride salt and N-(3-(5-((1-ethylpiperidin-4-yl)(methyl)amino)-3-(pyrimidin-5-yl)-1H-pyrrolo[3,2-b]pyridin-1-yl)-2,4-difluorophenyl)propane-1-sulfonamide […] following oral administration at 40 mg and 80 mg (dose calculated as the free base) to HsdHan:WIST Norway rats. Each salt was administered to 3 animals.

Structure (SMILES): CCCS(=O)(=O)Nc1ccc(F)c(-n2cc(-c3cncnc3)c3nc(N(C)C4CCN(CC)CC4)ccc32)c1F.O=C(O)CCC(=O)O [Monosuccinate Salt, N-(3-(5-((1-Ethylpiperidin-4-yl)(methyl)amino)-3-(pyrimidin-5-yl)-1H-pyrrolo[3,2-b]pyridin-1-yl)-2,4-difluorophenyl)propane-1-sulfonamide monosuccinate salt]
- Intrinsic dissolution rate compared with the monohydrochloride salt [1]: substantially higher
- Intrinsic Dissolution Rate ([1]; pH of medium 2.2, 37° C.): 6844 μg/cm^2/min.
- Intrinsic Dissolution Rate ([1]; pH of medium 3.0, 37° C.): 6605 μg/cm^2/min.
- Intrinsic Dissolution Rate ([1]; pH of medium 4.5, 37° C.): 2457 μg/cm^2/min.
- Intrinsic Dissolution Rate ([1]; pH of medium 6.8, 37° C.): 2533 μg/cm^2/min.
- Intrinsic Dissolution Rate ([1]; pH of medium 7.4, 37° C.): <1 μg/cm^2/min.
- Crystallinity and polymorphic form after compression (XRPD) ([2]; 2000 N for 1 s to a tablet (diameter 5 mm)): no significant decrease in crystallinity or change in polymorphic form
- Crystallinity and polymorphic form after milling (XRPD) ([2]; swing mill for 10 min. at 30 rps): slight decrease in crystallinity but no change in polymorphic form
- solubility at 2 h ([3]; 0.01 M HCl, simulated gastric fluid, HCl (0.01M)): > 50 µg/mL
- solubility at 2 h ([3]; 0.1 M HCl, simulated gastric fluid, HCl (0.1M)): 200 µg/mL
- Solubility compared with the monohydrochloride salt ([3]; a number of media tested): substantially higher
- solubility at 2 h ([3]; aqueous buffer, 0.1M Citric acid): > 5000 µg/mL
- solubility at 2 h ([3]; aqueous buffer, Acetate Buffer (pH 5.0)): > 5000 µg/mL
- solubility at 2 h ([3]; aqueous buffer, McIlvaine Buffer (pH 2.2)): > 5000 µg/mL
- solubility at 2 h ([3]; aqueous buffer, McIlvaine Buffer (pH 3.0)): > 5000 µg/mL
- solubility at 2 h ([3]; aqueous buffer, McIlvaine Buffer (pH 4.0)): > 5000 µg/mL
- solubility at 2 h ([3]; aqueous buffer, McIlvaine Buffer (pH 4.5)): > 5000 µg/mL
- solubility at 2 h ([3]; aqueous buffer, McIlvaine Buffer (pH 5.0)): > 5000 µg/mL
- solubility at 2 h ([3]; aqueous buffer, McIlvaine Buffer (pH 6.0)): 3700 µg/mL
- solubility at 2 h ([3]; aqueous buffer, McIlvaine Buffer (pH 6.8)): > 5000 µg/mL
- solubility at 2 h ([3]; aqueous buffer, McIlvaine Buffer (pH 7.4)): 300 µg/mL
- solubility at 2 h ([3]; aqueous buffer, Phosphate Buffer (pH 6.8)): > 5000 µg/mL
- solubility at 2 h ([3]; aqueous buffer, Sorensen Buffer (pH 9.0)): 1 µg/mL
- solubility at 2 h ([3]; aqueous buffer, Sorensen Buffer (pH 11)): 50 µg/mL
- solubility at 2 h ([3]; Simulated intestinal fluid (FaSSIF)): 3 µg/mL
- solubility at 2 h ([3]; Simulated intestinal fluid (FeSSIF)): 400 µg/mL
- solubility at 2 h ([3]; water): > 2000 µg/mL
- Intrinsic Dissolution Rate [4]: 201 μg/cm^2/min.
- Change in structure (XRPD) after sorption-desorption experiment ([5]; XRPD before and after, monosuccinate salt): no change in crystallinity or polymorphic form; also recorded: no significant change in structure occurred
- Reversible weight gain (isotherm sorption-desorption) ([5]; range from 0-80% relative humidity): approximately 0.25%
- Reversible weight gain (isotherm sorption-desorption) ([5]; range from 0-90% relative humidity): approximately 0.4%
- Weight gain (sorption-desorption) ([5]; range from 10-90% relative humidity, scale-up sample): approximately 1.2%
- AUD ([6]; 40 mg/kg oral): 30.3 µM·h
- AUD ([6]; 80 mg/kg oral): 25.1 µM·h
- Tmax ([6]; HsdHan:WIST, in vivo, 40 mg/kg oral): 2 h
- Tmax ([6]; HsdHan:WIST, in vivo, 80 mg/kg oral): 2.7 h
- bioavailability ([6]; HsdHan:WIST, plasma, po, 40 mg/kg dose): 50%
- Cmax ([6]; HsdHan:WIST, plasma, 40 mg/kg oral): 6550 nM
- Cmax ([6]; HsdHan:WIST, plasma, 80 mg/kg oral): 3520 nM
- concentration at 24 h ([6]; HsdHan:WIST, in vivo, po, 40 mg/kg, Time 24.0, 40 mg/kg oral, mean n = 3, read-out: Blood Plasma Concentrations): 3.98 nM
- concentration at 24 h ([6]; HsdHan:WIST, in vivo, po, 80 mg/kg, Time 24.0, 80 mg/kg oral, mean n = 3, read-out: Blood Plasma Concentrations): 5.09 nM
- concentration at 24 h ([6]; Time 0.5, 40 mg/kg oral, mean n = 3, read-out: Blood Plasma Concentrations): 523 nM
- concentration at 24 h ([6]; Time 0.5, 80 mg/kg oral, mean n = 3, read-out: Blood Plasma Concentrations): 274 nM
- concentration at 24 h ([6]; Time 1.0, 40 mg/kg oral, mean n = 3, read-out: Blood Plasma Concentrations): 1320 nM
- concentration at 24 h ([6]; Time 1.0, 80 mg/kg oral, mean n = 3, read-out: Blood Plasma Concentrations): 638 nM
- concentration at 24 h ([6]; Time 2.0, 40 mg/kg oral, mean n = 3, read-out: Blood Plasma Concentrations): 6550 nM
- concentration at 24 h ([6]; Time 2.0, 80 mg/kg oral, mean n = 3, read-out: Blood Plasma Concentrations): 3380 nM
- concentration at 24 h ([6]; Time 4.0, 40 mg/kg oral, mean n = 3, read-out: Blood Plasma Concentrations): 3860 nM
- concentration at 24 h ([6]; Time 4.0, 80 mg/kg oral, mean n = 3, read-out: Blood Plasma Concentrations): 2620 nM
- concentration at 24 h ([6]; Time 6.0, 40 mg/kg oral, mean n = 3, read-out: Blood Plasma Concentrations): 1140 nM
- concentration at 24 h ([6]; Time 6.0, 80 mg/kg oral, mean n = 3, read-out: Blood Plasma Concentrations): 1420 nM
- Exposure values compared with the monohydrochloride salt ([6]; oral): substantially higher
